Reference: US5380834A, “Immuno-suppressive agent” (Ishihara Sangyo Kaisha Ltd., priority 1992, dated 1995)
Converted amounts (≈) assume the structure as drawn.

Key:
[1] = tested on: murine bone mallow cells; assay: Effects on the murine bone mallow cells (proliferation, 3H-TdR uptake); type: cell-based, BALB/c mouse; details: Mus musculus, bone marrow cells; 20% L929 culture supernatant, 48 hours, 3H-TdR uptake; Tables 12-15; read-out: IC50 value, c (murine bone mallow cells)
Description: Bone mallow cells were removed from the femur of a BALB/c mouse and suspended in a 10% FCS-RPMI solution. The cell suspension was put into a plastic Petri dish having a diameter of 10 cm and left to stand still (in an incubator, 5% CO2, at 37° C.). Two hours later, only floating cells were recovered, and adhesion cells were removed. 1×10^5 floating cells were cultured for 48 hours together with a 20% culture supernatant of L929 fibroblastoma and the compound of the formula (I) on a microplate with 96 wells by a 10% FCS-RPMI solution (in an incubator, 5% CO2, at 37° C.). Then, 0.5 μCi of ^3 H-TdR was added thereto, and the mixture was further cultured for 4 hours. Then, cells were collected by a cell harvester, and the radioactivity (dpm) of ^3 H-TdR uptaken into the cells, was measured. Such measured amounts of ^3 H-TdR uptaken into the cells were used as indices for the proliferation of bone mallow cells, and the radioactivity at each concentration (from 0.001 to 1,000 μg/ml) of the compound of the formula (I) was compared with the control value where the L929 culture supernatant was added alone, to calculate the IC50 value. In these Tables 12 and 13, the results of the bone mallow cells are shown by (c).
For the basic procedure of this test, reference was made to Seikagakujikken Koza compiled by Japan Biochemistry Association, Vol. 5, p. 266-270 (published by Tokyo Kagaku Dojin in 1986).

[2] = tested on: IgE antibody production from murine spleen B cells; assay: Effects on the IgE antibody production from murine spleen cells (LPS + IL4); type: cell-based, BALB/c mouse; details: Mus musculus, B-cell, 168 h; spleen B cells, LPS 10 μg/ml, IL4 100 U/ml, 7 days, enzyme-immunoassay; read-out: IC50 value, IgE antibody production
Description: (§1) Using murine spleen B cells, the effects of the compound of the formula (I) on the IgGl, IgM and IgE antibody production induced by the stimulation by LPS (lipopolysaccharide; Product No. 520.02051, manufactured by Wako Junyaku) and IL4 (interleukin 4), were studied. Namely, spleen cells of a BALB/c mouse were treated with a murine anti-Thy-1 antibody (obtained from Chiba University) and a rabbit complement (Product No. 3051, manufactured by cedarlane) to remove T cells, and 3×10^5 spleen B cells were cultured for 7 days together with 10 μg/ml of LPS, 100 U/ml of mouse-recombinant IL4 (Product No. MIL-4C, manufactured by Genzyme) and each concentration (from […]) of the compound of the formula (I) on a microplate with 96 wells by a 10% FCS-RPMI solution (in an incubator, 5% CO2, at 37° C.).
(§2) For the basic procedure of this test, reference was made to The Journal of Immunology, Vol. 136, p. 4538, (1986).
(§3) The amount of each antibody in the cell culture supernatant hereby obtained, was measured by the following enzyme-immunoassay. Firstly, on a microplate with 96 wells, 1 μg/ml of a rabbit anti-mouse IgGl antibody (Product No. 36243, manufactured by Cappel), 1 μg/ml of a goat anti-mouse IgM antibody (Product No. 0611-0201, manufactured by Cappel) or 10 μg/ml of a rat anti-mouse IgE monoclonal antibody (Product No. LO-ME-2, manufactured by Experimental Immunology) was coated (50 μl/well, at room temperature for 60 minutes), and then a nonspecific bond was blocked by a 0.1% bovine serum albumin-containing 10 mM sodium phosphate buffer (pH 7.2) (at room temperature for 60 minutes). Then, the above-mentioned cell culture supernatant or its diluted solution was added in an amount of 50 μl/well and reacted at room temperature for 60 minutes. Further, an alkaline phosphatase-labeled rabbit anti-mouse IgGl antibody (Product No. 61-0122, manufactured by Zymet) diluted 1,000 times, an alkaline phosphatase-labeled rabbit anti-mouse IgM antibody (Product No. 61-6822, manufactured by Zymet) diluted 2,000 times, or an alkaline phosphatase-labeled goat anti-mouse IgE antibody (Product No. PA-284, manufactured by Binding Site) diluted 500 times was added in an amount of 50 μl/well and reacted at room temperature for 60 minutes. 100 μl/well of a 10% diethanol amine buffer solution (pH 9.8) containing p-nitrophenyl phosphate as an enzyme substrate, was reacted, and the absorbance at 405 nm was measured. The amount of each antibody was calculated from the calibration curve of each standard antibody, and the IC50 value of the compound of the formula (I) on the antibody production was calculated using as the control value a value obtained in the absence of the compound of the formula (I).

[3] = tested on: murine thymocytes; assay: Effects on the mitogenic response by murine thymocytes (Con A stimulation, 3H-TdR uptake); type: cell-based, BALB/c murine; details: Mus musculus, Thymocyte; BALB/c thymocytes, Con A 5 μg/ml, 48 hours, 3H-TdR uptake; read-out: IC50 value, a (mitogenic response of murine thymocytes)
Description: Using BALB/c murine thymocytes, the effect of the compound of the formula (I) on the mitogenic response of lymphocytes to the stimulation by concanavalin A (hereinafter referred to simply as Con A, Product No. L-1000, manufactured by Vector Laboratories) was studied. Namely, 4×10^5 murine thymocytes were cultured for 48 hours on a microplate with 96 wells in a RPMI1640 solution containing 10% of a fetal bovine serum (hereinafter referred to simply as a 10% FCS-RPMI solution) together with Con A (5 μg/ml) and the compound of the formula (I) (in an incubator, 5% CO2, at 37° C.). Then, 0.5 μCi of ^3 H-thymidine (hereinafter referred to simply as ^3 H-TdR) was added thereto, and the mixture was further cultured for 4 hours. Then, cells were collected by a cell harvester, and the radioactivity (dpm) of ^3 H-TdR uptaken into cells was measured. Such measured amounts of ^3 H-TdR uptaken into the cells were used as indices of the mitogenic response of the murine thymocytes, and the radioactivity at each concentration (from 0.001 to 1,000 μg/ml) of the compound of the formula (I) was compared with the control value treated solely by Con A, to calculate IC50 value. In these Tables 12 and 13, the results of murine thymocytes are shown by (a).
For the basic procedure of this test, reference was made to Selected methods in cellular immunology, p. 144-146 (translated by Katsuyuki Imai et al., published by Rikogakusha, (1982)).

[4] = tested on: murine mixed lymphocyte reaction (spleen cells of BALB/c and C57BL/6 mice); assay: Effects on the murine mixed lymphocyte reaction (3H-TdR uptake); type: cell-based; details: Mus musculus, BALB/c + C57BL/6 spleen cells, 48 hours, read-out: IC50 value, b (murine mixed lymphocyte reaction)
Description: Using spleen cells of BALB/c and C57BL/6 mice, the effect of the compound of the formula (I) on the murine mixed lymphocyte reaction in both sides, was studied. Namely, spleen cells of both types of mice were mixed in an equal amount of 5×10^5 cells each, and the mixed cells were cultured together with the compound of the formula (I) for 48 hours on a microplate with 96 wells by a 10% FCS-RPMI solution (in an incubator, 5% CO2, at 37° C.). Then, 0.5 μCi of ^3 H-TdR was added thereto, and the mixture was further cultured for from 16 to 18 hours. Then, cells were collected by a cell harvester, and the radioactivity (dpm) of ^3 H-TdR uptaken into the cells, was measured. Such measured amounts of ^3 H-TdR uptaken into the cells were used as indices for the mixed lymphocyte reaction, and the radioactivity at each concentration (from 0.001 to 1,000 μg/ml) of the compound of the formula (I) was compared with the non-treated control value, to calculate the Ic50 value.
For the basic procedure for this test, reference was made to Selected methods in cellular immunology, p. 147-149 (translated by Katsuyuki Imai et al., published by Rikogakusha, (1982)).

[5] = tested on: IgGl antibody production from murine spleen B cells; assay: Effects on the IgGl antibody production from murine spleen cells (LPS + IL4); type: cell-based, BALB/c mouse; details: Mus musculus, B-cell, 168 h; spleen B cells, LPS 10 μg/ml, IL4 100 U/ml, 7 days, enzyme-immunoassay; read-out: IC50 value, IgGl antibody production
Description: as §1, §2, §3

[6] = tested on: IgM antibody production from murine spleen B cells; assay: Effects on the IgM antibody production from murine spleen cells (LPS + IL4); type: cell-based, BALB/c mouse; details: Mus musculus, B-cell, 168 h; spleen B cells, LPS 10 μg/ml, IL4 100 U/ml, 7 days, enzyme-immunoassay; read-out: IC50 value, IgM antibody production
Description: as §1, §2, §3

Structure (SMILES) | IC50 [2] | IC50 [3] | IC50 [4] | IC50 [5] | IC50 [6] | IC50 [1]
O=C(O[C@H]1C=C[C@H]2CO[C@@H]1O2)c1cccnc1 [Compound 15] | 320 µg/mL | 130 µg/mL (≈ 557 µM) | 480 µg/mL | 220 µg/mL | 78 µg/mL | 310 µg/mL (≈ 1330 µM)
O=C(O[C@H]1C=C[C@H]2CO[C@@H]1O2)c1ccc(Cl)cc1 [Compound 16] | 50 µg/mL | 91 µg/mL (≈ 341 µM) | 190 µg/mL | 41 µg/mL | 20 µg/mL | 170 µg/mL (≈ 637 µM)
CCCCCCCCCCCCCCCCCCCC(=O)O[C@H]1C=C[C@H]2CO[C@@H]1O2 [Compound 20] | 3.2 µg/mL | 150 µg/mL (≈ 355 µM) | 240 µg/mL | 5.2 µg/mL | 500 µg/mL | 400 µg/mL (≈ 946 µM)
O=C(Oc1ccccc1)O[C@H]1C=C[C@H]2CO[C@@H]1O2 [Compound 22] | 4 µg/mL | 300 µg/mL (≈ 1210 µM) | 130 µg/mL | 670 µg/mL | 230 µg/mL | > 1000 µg/mL
O=C(Nc1ccccc1)O[C@H]1C=C[C@H]2CO[C@@H]1O2 [Compound 23, 1,6-anhydro-3,4-dideoxy-2-O-phenylcarbamoyl-β-D-threo-hex-3-enopyranose] | 43 µg/mL | 95 µg/mL (≈ 384 µM) | 170 µg/mL | 72 µg/mL | 69 µg/mL | 49 µg/mL (≈ 198 µM)
CNC(=S)O[C@H]1C=C[C@H]2CO[C@@H]1O2 [Compound 24, 1,6-anhydro-3,4-dideoxy-2-O-methylthiocarbamoyl-β-D-threo-hex-3-enopyranose] | 0.22 µg/mL | 170 µg/mL (≈ 845 µM) | 100 µg/mL | 17 µg/mL | 10 µg/mL | 620 µg/mL (≈ 3080 µM)
CC(C)(C)NC(=O)O[C@H]1C=C[C@H]2CO[C@@H]1O2 [Compound 25] | 0.0034 µg/mL | 0.32 µg/mL (≈ 1.41 µM) | 430 µg/mL | 0.0015 µg/mL | 78 µg/mL | 340 µg/mL (≈ 1500 µM)
S=C(Oc1ccccc1)O[C@H]1C=C[C@H]2CO[C@@H]1O2 [Compound 26] | 4.5 µg/mL | 44 µg/mL (≈ 166 µM) | 20 µg/mL | 23 µg/mL | 110 µg/mL | 200 µg/mL (≈ 757 µM)
Cc1ccc(S(=O)(=O)O[C@H]2C=C[C@H]3CO[C@@H]2O3)cc1 [Compound 46, 1,6-anhydro-3,4-dideoxy-2-O-(p-toluene)sulfonyl-β-D-threo-hex-3-enopyranose] | 0.32 µg/mL | 110 µg/mL (≈ 390 µM) | 22 µg/mL | 0.25 µg/mL | 0.35 µg/mL | 190 µg/mL (≈ 673 µM)
C1=C[C@H]2CO[C@H](O2)[C@H]1OCc1ccccc1 [Compound 48] | 41 µg/mL | 120 µg/mL (≈ 550 µM) | > 1000 µg/mL | 34 µg/mL | 35 µg/mL | 430 µg/mL (≈ 1970 µM)

Further lines, with some results ahead:

IC50 [2] | IC50 [3] | IC50 [4] | IC50 [5] | IC50 [6] | Structure (SMILES) | IC50 [1]
24 µg/mL | 49 µg/mL (≈ 318 µM) | 180 µg/mL | 34 µg/mL | 36 µg/mL | C=C[C@]1(O)C=C[C@H]2CO[C@@H]1O2 [Compound 27, 1,6-anhydro-3,4-dideoxy-2-C-vinyl-β-D-threo-hex-3-enopyranose] | 44 µg/mL (≈ 285 µM)
280 µg/mL | 76 µg/mL (≈ 535 µM) | 280 µg/mL | 380 µg/mL | 590 µg/mL | C[C@]1(O)C=C[C@H]2CO[C@@H]1O2 [Compound 28] | 150 µg/mL (≈ 1060 µM)
24 µg/mL | 110 µg/mL (≈ 597 µM) | 540 µg/mL | 190 µg/mL | 150 µg/mL | CCCC[C@]1(O)C=C[C@H]2CO[C@@H]1O2 [Compound 30] | 190 µg/mL (≈ 1030 µM)
140 µg/mL | 180 µg/mL (≈ 927 µM) | 560 µg/mL | 1.5 µg/mL | 10 µg/mL | CCCC#C[C@]1(O)C=C[C@H]2CO[C@@H]1O2 [Compound 31] | 520 µg/mL (≈ 2680 µM)
2.8 µg/mL | 320 µg/mL (≈ 1740 µM) | 540 µg/mL | 400 µg/mL | 350 µg/mL | CC(=O)O[C@@]1(C)C=C[C@H]2CO[C@@H]1O2 [Compound 32, 2-O-acetyl-1,6-anhydro-3,4-dideoxy-2-C-methyl-β-D-threo-hex-3-enopyranose] | 540 µg/mL (≈ 2930 µM)
0.0026 µg/mL | 160 µg/mL (≈ 868 µM) | > 1000 µg/mL | 0.067 µg/mL | 110 µg/mL | CCCCO[C@H]1C=C[C@H]2CO[C@@H]1O2 [Compound 40] | > 1000 µg/mL
